# In patent US10195156B2, “Compounds and compositions for intracellular delivery of agents” (ModernaTX, Inc., priority 2015, dated 2019):
# Legend:
# [1] = pKa of nanoparticle compositions; assay type: physicochemical
# [2] = Encapsulation efficiency of RNA (QUANT-IT RIBOGREEN RNA assay); assay type: physicochemical; conditions: for encapsulation efficiency, rank within the named table (in words): comparison amongst compositions
# Protocol: For nanoparticle compositions including an RNA, a QUANT-IT™ RIBOGREEN® RNA assay (Invitrogen Corporation Carlsbad, Calif.) can be used to evaluate the encapsulation of an RNA by the nanoparticle composition. The samples are diluted to a concentration of approximately 5 μg/mL in a TE buffer solution (10 mM Tris-HCl, 1 mM EDTA, pH 7.5). 50 μL of the diluted samples are transferred to a polystyrene 96 well plate and either 50 μL of TE buffer or 50 μL of a 2% Triton X-100 solution is added to the wells. The plate is incubated at a temperature of 37° C. for 15 minutes. The RIBOGREEN® reagent is diluted 1:100 in TE buffer, and 100 μL of this solution is added to each well. The fluorescence intensity can be measured using a fluorescence plate reader (Wallac Victor 1420 Multilablel Counter; Perkin Elmer, Waltham, Mass.) at an excitation wavelength of, for example, about 480 nm and an emission wavelength of, for example, about 520 nm. The fluorescence values of the reagent blank are subtracted from that of each of the samples and the percentage of free RNA is determined by dividing the fluorescence intensity of the intact sample (without addition of Triton X-100) by the fluorescence value of the disrupted sample (caused by the addition of Triton X-100).
# [3] = Particle size and polydispersity index of nanoparticle compositions (Zetasizer Nano ZS); assay type: physicochemical; conditions: for particle size, rank within the named table (in words): comparison amongst compositions
# Protocol: A Zetasizer Nano ZS (Malvern Instruments Ltd, Malvern, Worcestershire, UK) can be used to determine the particle size, the polydispersity index (PDI) and the zeta potential of the nanoparticle compositions in 1×PBS in determining particle size and 15 mM PBS in determining zeta potential.
# [4] = system: modified luciferase expression; experiment: Expression of Luc in different organs (liver, lung, spleen, femur) 6 hours after intravenous administration; assay type: in vivo; conditions: i.v., 0.5 mpk
# Protocol: The efficacy of the nanoparticle compositions presented in Tables 1, 1a, 17-1, 19-1, 20-1 and 21-1 was further evaluated by measuring the expression of modified luciferase in the liver, lung, spleen, and femur upon administration of a given composition. Formulations were administered intravenously to mice (n=3) at a dosage of 0.5 mpk and bioluminescence measured after 6 hours. The standard MC3 formulation and a PBS control were also tested.
# [5] = system: luciferase (Luc) mRNA expression; experiment: Expression of Luc induced by sample formulations, whole-body bioluminescence after intravenous administration; assay type: in vivo; conditions: mice, i.v., 0.5 mg/kg; for total flux / Luc expression, rank within the named table (in words): each time point
# Protocol: In order to monitor how effectively various nanoparticle compositions deliver therapeutic and/or prophylactic agents to targeted cells, different nanoparticle compositions including a particular therapeutic and/or prophylactic agent (for example, a modified or naturally occurring RNA such as an mRNA) are prepared and administered to rodent populations. Mice are intravenously, intramuscularly, intraarterially, or intratumorally administered a single dose including a nanoparticle composition with a formulation such as those provided in Table 1. In some instances, mice may be made to inhale doses. Dose sizes may range from 0.001 mg/kg to 10 mg/kg, where 10 mg/kg describes a dose including 10 mg of a therapeutic and/or prophylactic agent in a nanoparticle composition for each 1 kg of body mass of the mouse. A control composition including PBS may also be employed.
# Upon administration of nanoparticle compositions to mice, dose delivery profiles, dose responses, and toxicity of particular formulations and doses thereof can be measured by enzyme-linked immunosorbent assays (ELISA), bioluminescent imaging, or other methods. For nanoparticle compositions including mRNA, time courses of protein expression can also be evaluated. Samples collected from the rodents for evaluation may include blood, sera, and tissue (for example, muscle tissue from the site of an intramuscular injection and internal tissue); sample collection may involve sacrifice of the animals.
# The efficacy of the nanoparticle compositions presented in Tables 1, 1a, 17-1, 19-1, 20-1 and 21-1 was evaluated with a bioluminescence study. Formulations were administered intravenously to mice (n=6) at a dosage of 0.5 mg/kg (mpk) and bioluminescence measured at 3, 6, and 24 hour time points. The standard MC3 formulation and a PBS control were evaluated for comparison.
# [6] = Table 1, rows without footnote mark
# [7] = Table 1, rows without footnote mark (lipid:DOPE:cholesterol:PEG-DMG 40:20:38.5:1.5, Luc mRNA; MC3 standard formulation)
# [8] = Table 20-1, rows without footnote mark
# [9] = Table 1, * lipid:DSPC:Chol:PEG-DMG 50:10:38.5:1.5
structure (smiles),measurement,setting,value
"CCCCCCCCCCCCN(CCCCCCCCCCCC)CCN1CCN(CCN(CCCCCCCCCCCC)C(=O)CN(CCCCCCCCCCCC)CCCCCCCCCCCC)CC1 [Compound 1, 2-(Didodecylamino)-N-(2-(4-(2-(didodecylamino)ethyl)piperazin-1-yl)ethyl)-N-dodecylacetamide]",pKa,[1]; [6],5.95
same,EE (%),[2]; [6],46.2%
same,"encapsulation efficiency, rank within the named table (in words)",[2],lowest
same,Size (nm),[3]; [7],203.2 nm
same,"particle size, rank within the named table (in words)",[3],largest particles
"CCCCCCCCCCCCN(CCO)CCCCCCCCCCCC [Compound 17-11, 2-(Didodecylamino)ethan-1-ol]",Total Flux Liver,"[4]; Table 17-3, mice, liver",5.06E+05
same,Total Flux Lung,"[4]; Table 17-3, mice",1.20E+04
same,Total Flux Spleen,"[4]; Table 17-3, mice",3.37E+05
same,pKa,[1]; Table 17-1,6.76
same,EE (%),[2]; Table 17-1,88.7%
same,Total Flux 3 hours,[5]; Table 17-2,1.86E+06
same,Total Flux 6 hours,[5]; Table 17-2,2.82E+06
same,Total Flux 24 hours,[5]; Table 17-2,2.70E+05
same,PDI,[3]; Table 17-1,0.24
same,Size (nm),[3]; Table 17-1,87.3 nm
"CCCCCCCCCCCCN(CCCCCCCCCCCC)CCN1CCNCC1 [Compound 19-2, N-Dodecyl-N-(2-(piperazin-1-yl)ethyl)dodecan-1-amine]",Total Flux Liver,"[4]; Table 19-3, mice, liver",5.73E+04
same,Total Flux Lung,"[4]; Table 19-3, mice",2.33E+04
same,Total Flux Spleen,"[4]; Table 19-3, mice",3.56E+04
same,"total flux in the liver, rank within the named table (in words)","[4]; mice, liver",lowest total flux in the liver
same,pKa,[1]; Table 19-1,7.32
same,EE (%),[2]; Table 19-1,98.8%
same,Total Flux 3 hours,[5]; Table 19-2,1.96E+05
same,Total Flux 6 hours,[5]; Table 19-2,3.51E+05
same,Total Flux 24 hours,[5]; Table 19-2,2.29E+05
same,"total flux / Luc expression, rank within the named table (in words)",[5],lowest total flux
same,PDI,[3]; Table 19-1,0.239
same,Size (nm),[3]; Table 19-1,72.0 nm
"CCCCCCCCCCCCN(CCCCCCCCCCCC)CCN1CCN(Cc2ccc(OC)cc2)CC1 [Compound 19-5, N-Dodecyl-N-(2-(4-(4-methoxybenzyl)piperazin-1-yl)ethyl)dodecan-1-amine]",Total Flux Liver,"[4]; Table 19-3, mice, liver",5.99E+06
same,Total Flux Lung,"[4]; Table 19-3, mice",3.46E+04
same,Total Flux Spleen,"[4]; Table 19-3, mice",2.10E+05
same,pKa,[1]; Table 19-1,6.32
same,EE (%),[2]; Table 19-1,93.6%
same,Total Flux 3 hours,[5]; Table 19-2,2.37E+07
same,Total Flux 6 hours,[5]; Table 19-2,1.44E+07
same,Total Flux 24 hours,[5]; Table 19-2,2.76E+06
same,"total flux / Luc expression, rank within the named table (in words)",[5],next highest flux
same,PDI,[3]; Table 19-1,0.204
same,Size (nm),[3]; Table 19-1,106.9 nm
"CCCCCCCCCCCCN(CCO)CCN(CCCCCCCCCCCC)CCCCCCCCCCCC [Compound 20-20, 2-((2-(Didodecylamino)ethyl)(dodecyl)amino)ethan-1-ol]",Total Flux Liver,"[4]; Table 20-3, mice, liver",8.92E+08
same,Total Flux Lung,"[4]; Table 20-3, mice",1.12E+06
same,Total Flux Spleen,"[4]; Table 20-3, mice",1.39E+07
same,pKa,[1]; [8],6.41
same,EE (%),[2]; [8],95.2%
same,Total Flux 3 hours,[5]; Table 20-2,4.56E+09
same,Total Flux 6 hours,[5]; Table 20-2,3.27E+09
same,Total Flux 24 hours,[5]; Table 20-2,3.56E+08
same,PDI,[3]; [8],0.159
same,Size (nm),[3]; [8],86.8 nm
"CCCCC/C=C\C/C=C\CCCCCCCCC1(CCCCCCCC/C=C\C/C=C\CCCCC)CC1CN(C)C (stereo not drawn) [Compound 21-1, 1-(2,2-Di((9Z,12Z)-octadeca-9,12-dien-1-yl)cyclopropyl)-N,N-dimethylmethanamine]",Total Flux Liver,"[4]; Table 21-3, mice, liver",3.62E+08
same,Total Flux Lung,"[4]; Table 21-3, mice",5.44E+05
same,Total Flux Spleen,"[4]; Table 21-3, mice",3.27E+07
same,pKa,[1]; Table 21-1,6.07
same,EE (%),[2]; Table 21-1,98.4%
same,Total Flux 3 hours,[5]; Table 21-2,3.66E+09
same,Total Flux 6 hours,[5]; Table 21-2,4.19E+09
same,Total Flux 24 hours,[5]; Table 21-2,4.19E+09
same,PDI,[3]; Table 21-1,0.237
same,Size (nm),[3]; Table 21-1,119.9 nm
same,"particle size, rank within the named table (in words)",[3],largest particles
"CCCCC/C=C\CCCCCN(CCCCCCCCCCCC)CCN1CCN(CCN(CCCCCCCCCCCC)CCN(CCCCCCCCCCCC)CCCCCCCCCCCC)CC1 [Compound 24, (Z)—N^1-(2-(4-(2-(Dodec-6-en-1-yl(dodecyl)amino)ethyl)piperazin-1-yl)ethyl)-N^1,N^2,N^2-tridodecylethane-1,2-diamine]",pKa,[1]; [9],6.01
same,EE (%),[2]; [9],36.4%
same,"encapsulation efficiency, rank within the named table (in words)",[2],lowest
same,Size (nm),"[3]; Table 1, * formulated with lipid:DSPC:Chol:PEG-DMG 50:10:38.5:1.5",110.4 nm
same,PDI,[3]; [9],0.131
"CCCCCCCC/C=C\CCCCCCCCN(CCCCCCCC/C=C\CCCCCCCC)CCN(CCCCCCCC/C=C\CCCCCCCC)CCN1CCN(CCN(CCCCCCCC/C=C\CCCCCCCC)CCCCCCCC/C=C\CCCCCCCC)CC1 [Formula IV, N^1-(2-(4-(2-(Di((Z)-octadec-9-en-1-yl)amino)ethyl)piperazin-1-yl)ethyl)-N^1,N^2,N^2-tri((Z)-octadec-9-en-1-yl)ethane-1,2-diamine]",Total Flux Liver,"[4]; Table 3, mice, liver",9.15E+08
same,Total Flux Spleen,"[4]; Table 3, mice",6.15E+08
same,pKa,[1]; [6],6.25
same,EE (%),[2]; [6],97.6%
same,Size (nm),[3]; [7],94.2 nm
